Here are results for five compounds from US10247722B2, “Use of compounds inhibiting apelin / APJ / GP130 signaling for treating cancer” (Centre National de la Recherche Scientifique (CNRS), priority 2014, dated 2019).

Series [1] relates to patient-derived GSCs. As to the kind of experiment: Secondary neurosphere/tumoursphere formation, Sox2/Nestin expression and trypan blue viability of GSCs. Type of series: cell-based, human. Particulars: mitogen-free medium plus APJ agonist; ML233 1 mmol·l^1, 4 days (FIG. 13).
Series [2] deals with patient-derived GSCs. Described as above. It counts as cell-based, human. The procedure: (§1) FIG. 9. […] GSCs were pre-treated with APJ antagonist (MM54, 2 μmol·l^1) 45 min prior EC-CM or Apelin (Apin, 1 μmol·l^−1, 7 min) and protein lysates were analysed by western-blots with the indicated antibodies. Controls include GSC grown in complete (NS) and mitogen-free media (MF). b. STAT3 reporter activity was measured in mock, APJ, Gp130 and APJ+Gp130-transfected HEK-293T and exposed for 6 h to MF and Apin, together with either DMSO or MM54. c. GSCs were exposed to NS, EC-CM and Apin in the presence of DMSO or MM54. Tumoursphere formation per field of view (TS/FOV) was also quantified. d. Nude mice were xenografted with GSCs and bi-weekly intraperitoneal administration of vehicle (PBS) or APJ antagonist (MM54, 20 μmol·l^−1) started at week 4 (arrow). Tumour volume was measured weekly for 7 weeks. e. Frozen sections from GSC-xenografted tumours treated either with vehicle or MM54 were stained for blood vessels (PECAM), together with either Ki67 (proliferation marker or Nestin and nuclei. Percentage of dead cells was estimated by TUNEL. Quantification of both staining is shown. Data represent mean+sem on n=3 experiments. Two-way ANOVA: *P<0.05; **P<0.01.
FIG. 11. […] Apelin secretion was measured by EIA in positive templates (C+), mitogen-free media (MF), human brain endothelial cell (EC) and GSC conditioned media (CM). RT-PCR for Apelin and Actin is also shown for EC and GSC. b. Confocal analysis of Nestin (green), Sox2 (red) and nuclei (DAPI, blue) in GSC grown in complete media (NS), in MF, in EC-CM or MF containing only recombinant Apelin (Apin, 1 μmol·l^−1). Scale bar: 40 um. c-d. GSCs #1-16 were cultured in MF or Apin. Quantification of tumourspheres per field of view (TS/FOV) (c) and trypan blue exclusion quantification (Viable cells %) (d) was performed. e. EC received non-silencing RNA (siC) or Apin targeting siRNA (siApin). Apin extinction was checked by RT-PCR and enzyme immunoassay. f. GSCs were cultured with siC and siApin EC-CM, as prepared in (e). Confocal analysis was performed on Nestin (green), Sox2 (red) and DAPI (blue) co-staining. Scale bar: 40 μm. g-h. siC or siApin EC-CM treated GSCs were processed as in (c, d). i-k. GSCs were cultured with NS, MF, siC EC-CM and siApinEC-CM alone or plus Apin. Phase pictures are shown (i) Scale bar: 25 μm, TS/FOV and viable cells were also analysed (j, k). Data represent mean+sem on n=3 experiments. T-test: *P<0.05; **P<0.01; ***P<0.001.
GSCs were dissociated by up-and-down pipetting and cultured in a 48-well plate format. […] NS counts were blindly performed on five random fields of view (fov) and the mean of neurosphere/fov was calculated from 3 independent experiments. Statistical analyses were performed using 2-way Student's test (Excel Microsoft Office).

Another series has as its system Akt/mTor pathway. Kind of series: Western blot of Akt/mTor pathway activation (pAkt, pS6) in GSCs. Type of series: cell-based, human. The procedure:
FIG. 4. […] Scale bar: 40 μm. Data represent mean+sem on n=3 experiments.
as §1

Series [3] deals with STAT3. As to conditions: recombinant Apelin 1 μM.
Description: A. Western-blot analysis for pY-STAT3, pS-STAT3 and Total STAT3 in GSC#1 treated with complete media (NS34), deprived medium (SF), endothelial cell-conditioned media (EC-CM), or SF supplemented with Apelin (1 μM), for the indicated times. B. GSC#1 received non-silencing siRNA (sic) or siRNA targeting APJ. GSC#1 were treated with EC-CM and analyzed by western-blots using the indicated antibodies (upper panel). Alternatively, GSC#1 received EC-CM prepared from non-silencing shRNA (shC) or shRNA targeting Apelin (lower panel). […] GSC#1 received non-silencing siRNA (siC) or siRNA targeting GP130, were stimulated with EC-CM three days later, and protein lysates were analyzed by western-blots, using the indicated antibodies. D. GSC#1 were pre-treated with GP130-blocking antibody 45 min prior EC-CM or Apelin stimulation and protein lysates were analyzed by western-blots. E. Neurosphere assay was conducted in GSC#1 treated with siRNA as in (C) or with GP130-blocking antibody as in (D).
Proteins were collected in TNT buffer (10 mM Tris-HCl pH 7.5, 150 mM NaCl, 1% Triton X100, 2 mM EDTA) plus protease inhibitors (Sigma), 200 mM NaF and 0.1 mM Na3VO4. Equal amounts of proteins (microBCA kit, Pierce) were separated with 4-12% Nupage gels (Invitrogen) and transferred onto PVDF membranes (Thermo Fisher Scientific). […]
For series [4], the system named is human GSCs implanted into immunocompromised mouse flanks. Kind of series: Subcutaneous GSC xenograft in nude mice, tumour growth and histology. Type of series: in vivo. As to the method:
(§2) FIG. 9. Pharmacological inhibition of APJ impairs tumour growth. a. GSCs were pre-treated with APJ antagonist (MM54, 2 μmol·l^1) 45 min prior EC-CM or Apelin (Apin, 1 μmol·l^−1, 7 min) and protein lysates were analysed by western-blots with the indicated antibodies. Controls include GSC grown in complete (NS) and mitogen-free media (MF). b. STAT3 reporter activity was measured in mock, APJ, Gp130 and APJ+Gp130-transfected HEK-293T and exposed for 6 h to MF and Apin, together with either DMSO or MM54. c. GSCs were exposed to NS, EC-CM and Apin in the presence of DMSO or MM54. Tumoursphere formation per field of view (TS/FOV) was also quantified. d. Nude mice were xenografted with GSCs and bi-weekly intraperitoneal administration of vehicle (PBS) or APJ antagonist (MM54, 20 μmol·l^−1) started at week 4 (arrow). Tumour volume was measured weekly for 7 weeks. e. Frozen sections from GSC-xenografted tumours treated either with vehicle or MM54 were stained for blood vessels (PECAM), together with either Ki67 (proliferation marker or Nestin and nuclei. Percentage of dead cells was estimated by TUNEL. Quantification of both staining is shown. Data represent mean+sem on n=3 experiments. Two-way ANOVA: *P<0.05; **P<0.01.
All animal studies were carried out according to French Ministry approved protocols (agreement number #00754.02), in compliance with the European Convention for the Protection of Vertebrate Animals used for Experimental and other Scientific Purposes (ETS 123). Six weeks old females BALB/c nude mice (Janvier) were subcutaneously injected with 1*10^6 cells in 100 μl 1:1 PBS and growth factors-free matrigel (Corning). For tumour initiation (FIG. 9), mice were examined weekly in the search for tumours and sacrificed 7 weeks after implantation. For pharmacological studies (FIG. 6), mice were treated twice per week with MNI54 or vehicle (DMSO) diluted in PBS (100 μl) (intraperitoneal injection for 7 weeks), once tumours were detected (4 weeks post-implantation).
Upon sacrifice, tumours were extracted, embedded in OCT (Tissue Tek) in biomoulds, frozen by immersion in dry ice-chilled isopentane for 1 min, and stored at −80° C. for further analysis.
For immunostaining, embedded OCT-tumours were cut in 7 μm sections using a CM350S Leica cryostat (Histology platform, Institut Cochin, Paris). […]
A minimum of 3 tumour sections per condition was used, with at least 5 different fields of view (fov) each. For blood vessel surface analysis, PECAM pixel intensity was calculated in each fov and an average+sem of the total fov was represented. Cell proliferation was assessed through the percentage of Ki67-positive cells normalized to the total cell number of cells in DAPI. Nestin positive cells were counted per fov.

For series [5], the system named is STAT3. As to the kind of experiment: STAT3 luciferase reporter assay in HEK-293T co-expressing APJ and Gp130. Particulars: HEK-293T co-expressing APJ and Gp130, Apelin 6 h. It counts as cell-based, human. As to the method:
as §2, with “Nude mice were xenografted with GSCs and bi-weekly intraperitoneal administration of vehicle (PBS) or APJ antagonist (MM54, 20 μmol·l^−1) started at week 4 (arrow).” left out
HEK-293T cells were co-transfected with HA-APJ, GP130, STAT3 Luciferase Reporter Vector (Affymetrix) and Renilla (Promega). […] Then, cells were lysed and STAT3 luciferase activity was measured using the Dual-Luciferase Reporter Assay (Promega). […]
Background: A reporter such as luciferase makes a cellular process visible.

A short description of series [6]: Toxicity observation in MM54-treated mice (body weight, heart/body weight ratio, heart anatomy). It counts as in vivo. Particulars: ectopic tumour-bearing mice, bi-weekly over 7 weeks; sham-operated female nude mice. The procedure: FIG. 16. […] Gain weight was measured in ectopic tumour bearing mice that received bi-weekly treatment over 7 weeks. b-d. Female nude mice underwent intracranial implantation of PBS (sham surgery) and then received DMSO and MM54 17 days after PBS implantation. Body weight was monitored long the experiment (a). Heart/body weight ratios were calculated at the day of sacrifice (c). General anatomy of hearts from DMSO and MM54-treated mice using the Masson Trichrome staining (d).

Series [7] deals with mice intracranially implanted with GSCs. As to the kind of experiment: Orthotopic (intracranial) GSC #9 implantation in nude mice. It counts as in vivo. The procedure:
FIG. 15. Anti-tumor effect of APJ inhibition. Nude mice were implanted with GSC #9 orthotopically (10^5 cells) and treated tri-weekly with intraperitoneal injection of vehicle (PBS) or APJ antagonist (MM54, 20 μmol·l^−, 4 mg/kg) starting at day 16 (arrow). Appearance of neurological symptoms (a) and weight at sacrifice (b) were monitored. Kaplan-Meier survival curve of GSC #9-bearing mice is shown (c). Data represent mean+sem of n=3 experiments. Two-way ANOVA: *P<0.05; **P<0.01.

The mark [8] stands for this setting: intracranial GSC #9, intraperitoneal MM54 thrice a week (4 mg/kg) from day 16.

“Also recorded” adds a separate entry of the source. Positions of bridges follow the written chain, without caps; N, C: chain ends. No end group written: not given here.

For `CC1=CC(=O)C(C2CCCCC2)=C/C1=N\OS(=O)(=O)c1ccccc1` [ML233], the GSC survival result with patient-derived GSCs [1] is “promote GSC survival; also recorded: promotes GSC survival through APJ/GP130”.
Regarding Apelin, the “EC-CM-sustained self-renewal and viability of GSCs” value in the series with patient-derived GSCs [2] (exogenous Apelin added into Apelin-depleted endothelial cell-derived media) is on record as “restored”. In addition, the “GSC self-renewal (secondary neurosphere formation and Sox2/Nestin expression)” value in the series with patient-derived GSCs [2] (recombinant Apelin 1 μM in mitogen-free media, panel of 16 patient-derived GSCs) was “sufficient to support self-renewal; also recorded: maintained”. The “Mitogen deprivation-induced cell death” value in the series with patient-derived GSCs [2] (recombinant Apelin in mitogen-free media, trypan blue exclusion) was “hindered”. The “Activation of the Akt/mTor pathway in GSCs (Akt, S6 phosphorylation)” value in the series on Akt/mTor pathway (recombinant Apelin 1 μM, no other exogenous mitogen) was “able to activate this pathway in a similar extend than EC-CM; also recorded: triggered the activation of the mTor signalling cascade”. Besides, the “Activation of STAT3 signaling in GSCs” value with STAT3 [3] was “able to activate this signaling pathway”. Further, in the series on patient-derived GSCs [1], the GSC survival result is listed as “has an effect on GSCs survival”.
With Apelin 13, in the series on patient-derived GSCs [1], the GSC survival entry was “promote GSC survival”.
Still for that read-out and setting: in the case of “Apelin 36: 36 amino acid peptide corresponding to the sequence 42-77 of the Apelin proprotein; APJ agonist (LVQPRGSRNGPGPWQGGRRKFRRQRPRLSHKGPMPF; homo sapiens; Apelin 36 aa - homo sapiens)” it was “promote GSC survival”.
On to “cyclo(1-6)CRPRLC-KH-cyclo(9-14)CRPRLC (CRPRLCKHCRPRLC; bridge 1-6, 9-14) [MM54, APJ antagonist (Macaluso N J et al., 2011), supplied by Dr. Robert Glenn]”, for which the “Neurosphere number and size, with Sox2/Nestin” value with patient-derived GSCs [2] (GSCs cultured with EC-CM) is reported as “dramatically decreased”. Further, the “Endothelial Apelin-dependent GSC self-renewal and survival (tumoursphere formation)” value in the series on patient-derived GSCs [2] (GSCs exposed to EC-CM or Apelin in presence of DMSO or MM54) is on record as “blocks; also recorded: impaired”. The “Inhibition of EC-CM- and Apelin-induced Akt/mTor activation in GSCs” value in the series with Akt/mTor pathway (pre-treatment 45 min prior EC-CM or Apelin (1 μmol·l^−1, 7 min), MM54 2 μmol·l^−1) is listed as “blocks; also recorded: alleviated”. In series [4] (bi-weekly intraperitoneal MM54), the “GSC number in residual tumours, as scored with Nestin” value is reported as “decreased”; the “Overall cell proliferation (Ki67) and viability (TUNEL) in residual tumours” value is on record as “decreased”; the “Tumour vascularisation (PECAM)” value is listed as “reduction”. The “Tumour growth (tumour volume)” value in series [4] (bi-weekly intraperitoneal MM54 (20 μmol·l^−1) from week 4, 7 weeks) was “capable of in vivo inhibiting tumor growth once initiated; also recorded: restrain tumor growth and expansion; also recorded: strongly hindered”. In the series with STAT3 [5], the “Inhibition of Apelin-mediated STAT3 activation (STAT3 reporter activity)” value is “reduced”. Besides, the “Inhibition of Apelin-mediated STAT3 activation (STAT3 reporter activity)” value with STAT3 [5] (listed as pharmacological antagonist of APJ) is on record as “blocked”. Besides, the “Toxic effects of treatment” value in series [6] was “does not exert any obvious toxic effects”. In addition, the Neurological symptoms entry in series [7] (intracranial GSC #9, intraperitoneal MM54 thrice a week (20 μmol·l^−, 4 mg/kg) from day 16) is reported as “significantly abolish”. In series [7] (setting [8]), the “Loss weight associated with tumour progression” value is given as “rescue” and the “Overall survival of tumour-bearing mice (Kaplan-Meier)” value was “dramatically increased”. For the same compound, the Tumour size result in series [7] (intracranial GSCs, intraperitoneal MM54 thrice a week) is “reduced”.
